Legend:
Type in all cases: biochemical
[1] = molecular target: T1, Human full-length diacylglycerol:acylCoA acyltransferase 1 (DGAT-1) (Homo sapiens, UniProt O75907); assay: DGAT-1 Reduced Microsome Multidose Assay, G7829E Human IC50; conditions: crude membrane fraction of Sf9 cells expressing human DGAT-1; [14C]decanoylCoA; terminated with 5 μl of 1.4% phosphoric acid instead of HCl; average where tested more than once
T1 construct: Human full-length diacylglycerol:acylCoA acyltransferase 1 (DGAT-1) was expressed in Sf9 insect cells; made in house; host or cells: Sf9 insect cells (baculovirus); crude membrane/microsome fraction
T1 sequence (O75907 1-488): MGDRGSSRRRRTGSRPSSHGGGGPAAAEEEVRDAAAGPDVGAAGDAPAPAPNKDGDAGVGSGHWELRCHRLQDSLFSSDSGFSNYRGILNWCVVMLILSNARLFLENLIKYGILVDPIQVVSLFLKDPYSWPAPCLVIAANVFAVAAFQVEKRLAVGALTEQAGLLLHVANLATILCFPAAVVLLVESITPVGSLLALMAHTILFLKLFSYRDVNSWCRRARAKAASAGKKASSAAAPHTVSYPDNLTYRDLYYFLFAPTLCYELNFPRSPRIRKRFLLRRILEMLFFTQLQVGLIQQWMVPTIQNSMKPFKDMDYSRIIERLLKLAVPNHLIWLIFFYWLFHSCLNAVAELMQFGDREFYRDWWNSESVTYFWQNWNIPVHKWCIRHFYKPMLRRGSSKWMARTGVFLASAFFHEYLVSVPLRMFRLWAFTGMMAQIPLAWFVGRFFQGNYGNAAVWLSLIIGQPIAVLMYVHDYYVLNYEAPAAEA
Experimental: (§1) Human full-length diacylglycerol:acylCoA acyltransferase 1 (DGAT-1) was expressed in Sf9 insect cells which are then lysed and a crude membrane fraction (105,000×g pellet) was prepared. The DGAT-1 gene is a human DGAT-1 gene described in J Biol Chem 273:26765 (1998) and U.S. Pat. No. 6,100,077.
(§2) In vitro inhibition of DGAT-1 was measured using a modification, further described below, of the assay methodology described in U.S. Pat. No. 6,994,956 B2.
(§3) The cells were cultured as follows. Sf9 cells (20 L) were infected with 4 mL of DGAT-1 Baculovirus Infected Insect Cells (BIIC) for 72 hours in a Wave Bioreactor System 20/50P (Wave Biotec/GE Healthcare).
(§4) Crude DGAT-1 microsomes were prepared as follows. Cell pellets were washed once with ice-cold Dulbecco's phosphate-buffered saline. Cells were collected in tabletop centrifuge (Beckman GS-6KR), 15 minutes, 2000×g, 4° C. Twenty (20) mL of ice-cold Microsome Buffer (MB) was added per 5 g of cell pellet. The suspension was passed through a microfluidizer 3 times (18K psi). The lysate was transferred to centrifuge tubes and centrifuged for 20 minutes at 5000×g (Beckman-Coulter, Inc. Allegra® 64R High-Speed Refrigerated Benchtop Centrifuge, F0650 rotor) at 4° C. The supernatant was transferred to ultracentrifuge tubes and centrifuged at 125,000×g for 1 hour in a Beckman Ti-45 rotor, 4° C. The supernatant fluid was discarded. The pellet was resuspended in 70 mL of MB by sonication. The microsome concentration was determined using Bio-Rad Protein DC Protein Assay. The microsomes were filter sterilized with a 0.22 μm filter. The samples were portioned, flash frozen and stored at −80° C.
(§5) The Microsome Buffer, used for microsome preparation, was prepared by conventional means and contained 125 mM sucrose, 3 mM imidazole, 0.2 μg/mL aprotinin, 0.2 μg/mL leupeptin and 5 mM dithiothreitol (Cleland's reagent), DGAT-1 activity was measured in 384-well format in a total assay volume of 25 μl that contained, Hepes buffer (50 mM, pH 7.5), MgCl2 (10 mM), bovine serum albumin (0.6 mg/ml), [^14C]decanoylCoA (20 μM, 58 Ci/mol) and membranes (25 μg/ml) into which 1,2 dioleoyl-sn-glycerol (75 μM) in acetone has already been incorporated. Inhibitors in DMSO were pre-incubated with membranes before initiating the DGAT-1 reaction by the addition of decanoylCoA. […] The DMSO concentration was 2.5%. The inhibitors were present at a range of eight concentrations to generate an apparent IC50 for each compound. The eight inhibitor concentration employed ranged from 10 μM to 3 nM (from high to low concentration). Specifically, the eight concentrations used were 10 μM, 3 μM, 1 μM, 300 nM, 100 nM, 30 nM, 10 nM and 3 nM.
(§6) Reaction mixtures were neutralized by the addition of 15 μl of tris(hydroxy-methyl)aminomethane (1M, pH 8.0) and then mixed by trituration with 37.5 μl of Microscint™-E (Perkin Elmer). Plates contents were allowed to partition for 15 to 30 min before ^14C was measured in a scintillation spectrometer (Wallac Microbeta Trilux 1450-030 liquid scintillation counter 12 detector in the top-count DPM mode). Percent inhibition of test compounds was computed as 100-((DPM DMSO uninhibited-DPM test compound)/(DPM DMSO uninhibited)).
Four separate assays were performed using 4 different methods of analysis. The method of analysis of Assay 1 was the same as Assay 4 (described above) except microsomes were utilized at 25 μg/mL instead of 5 μg/mL. The method of analysis of Assay 2 was the same as Assay 4 (described above) except eleven (11) concentrations of inhibitor were employed instead of eight (8). The method of analysis of Assay 3 was the same as Assay 2 except the compounds were serially diluted in a different laboratory.
Where this DGAT-1 inhibition assay was performed on a compound more than once, an average is provided for that compound.

[2] = molecular target: T1, Human full-length diacylglycerol:acylCoA acyltransferase 1 (DGAT-1); assay: DGAT-1 Reduced Microsome Multidose Assay, G7329F Human IC50; conditions: crude membrane fraction of Sf9 cells expressing human DGAT-1; [14C]decanoylCoA; apparent IC50, average where tested more than once
Summary of the method: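 Sf9-expressed full-length DGAT-1 microsomes (25 or 5 μg/mL) with incorporated 1,2-dioleoyl-sn-glycerol (75 μM), pH 7.5 Hepes, 20 μM [14C]decanoylCoA, 2.5% DMSO, inhibitor pre-incubated. Eight (3 nM–10 μM) or eleven concentrations; 14C product by scintillation gives apparent IC50, averaged over repeats.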

[3] = molecular target: T1, Human full-length diacylglycerol:acylCoA acyltransferase 1 (DGAT-1); assay: DGAT-1 Reduced Microsome Multidose Assay, G7329E Human IC50; conditions: crude membrane fraction of Sf9 cells expressing human DGAT-1; [14C]decanoylCoA; apparent IC50, average where tested more than once
Experimental: as §1, §2, §3, §4, §5, §6
Four separate assays were performed using 4 different methods of analysis. The method of analysis of Assay 1 was the same as Assay 4 (described above) except microsomes were utilized at 25 μg/mL instead of 5 μg/mL. […]

[4] = molecular target: T1, Human full-length diacylglycerol:acylCoA acyltransferase 1 (DGAT-1); assay: DGAT-1 Reduced Microsome Multidose Assay, G7329B Human IC50; conditions: crude membrane fraction of Sf9 cells expressing human DGAT-1; [14C]decanoylCoA; apparent IC50, average where tested more than once
Experimental: as §1, §2, §3
Crude DGAT-1 microsomes were prepared as follows. Cell pellets were washed once with ice-cold Dulbecco's phosphate-buffered saline. Cells were collected in tabletop centrifuge (Beckman GS-6KR), 15 minutes, 2000×g, 4° C. Twenty (20) mL of ice-cold Microsome Buffer (MB) was added per 5 g of cell pellet. The suspension was passed through a microfluidizer 3 times (18K psi). […] The microsome concentration was determined using Bio-Rad Protein DC Protein Assay. […]
The Microsome Buffer, used for microsome preparation, was prepared by conventional means and contained 125 mM sucrose, 3 mM imidazole, 0.2 μg/mL aprotinin, 0.2 μg/mL leupeptin and 5 mM dithiothreitol (Cleland's reagent), DGAT-1 activity was measured in 384-well format in a total assay volume of 25 μl that contained, Hepes buffer (50 mM, pH 7.5), MgCl2 (10 mM), bovine serum albumin (0.6 mg/ml), [^14C]decanoylCoA (20 μM, 58 Ci/mol) and membranes (25 μg/ml) into which 1,2 dioleoyl-sn-glycerol (75 μM) in acetone has already been incorporated. […]
as §6, with “Percent inhibition of test compounds was computed as 100-((DPM DMSO uninhibited-DPM test compound)/(DPM DMSO uninhibited)).” left out

IC50 [1] | IC50 [2] | IC50 [3] | IC50 [4] | SMILES
67.3 nM | 68.9 nM | – | – | COc1nc(N)c2c(n1)CCN(c1ccc(C(C)(C)c3ncno3)cc1)C2=O (single isomer, unassigned) [Example 3L]
55.2 nM | 77.8 nM | – | – | COc1nc(N)c2c(n1)CCN(c1ccc(C(C)(C)c3ncon3)cc1)C2=O (single isomer, unassigned) [Example 3M, 4-amino-2-methoxy-6-{4-[1-methyl-1-(1,2,4-oxadiazol-3-yl)ethyl]phenyl}-7,8-dihydropyrido[4,3-d]pyrimidin-5(6H)-one]
55.1 nM | 112 nM | – | – | COc1nc(N)c2c(n1)CCN(c1ccc(C(=O)OCC(C)(C)C)cc1)C2=O [Example 2F, 2,2-dimethylpropyl 4-(4-amino-2-methoxy-5-oxo-7,8-dihydropyrido[4,3-d]pyrimidin-6(5H)-yl)benzoate]
21.1 nM | – | – | – | COc1nc(N)c2c(n1)CCN(c1ccc(C(C)(C)c3nnn(C)n3)cc1)C2=O [Example 3R, 4-amino-2-methoxy-6-{4-[1-methyl-1-(2-methyl-2H-tetrazol-5-yl)ethyl]phenyl}-7,8-dihydropyrido[4,3-d]pyrimidin-5(6H)-one]
19.6 nM | – | – | – | COc1nc(N)c2c(n1)CCN(c1ccc(C(C)(C)CNC(=O)OC(C)(C)C)cc1)C2=O [Example 3T, tert-butyl {2-[4-(4-amino-2-methoxy-5-oxo-7,8-dihydropyrido[4,3-d]pyrimidin-6(5H)-yl)phenyl]-2-methylpropyl}carbamate]
20.7 nM | – | – | – | COc1nc(N)c2c(n1)CCN(c1ccc(C3(C#N)CCC3)cc1)C2=O [Example 4A, 1-[4-(4-amino-2-methoxy-5-oxo-7,8-dihydropyrido[4,3-d]pyrimidin-6(5H)-yl)phenyl]cyclobutanecarbonitrile]
78.6 nM | – | – | – | COc1nc(N)c2c(n1)CCN(c1ccc(C3(C(N)=O)CCC3)cc1)C2=O [Example 5A, 1-[4-(4-amino-2-methoxy-5-oxo-7,8-dihydropyrido[4,3-d]pyrimidin-6(5H)-yl)phenyl]cyclobutanecarboxamide]
184 nM | – | – | – | COc1nc(N)c2c(n1)CCN(c1ccc(C3(C(N)=O)CCCCC3)cc1)C2=O [Example 5B, 1-[4-(4-amino-2-methoxy-5-oxo-7,8-dihydropyrido[4,3-d]pyrimidin-6(5H)-yl)phenyl]cyclohexanecarboxamide]
217 nM | – | – | – | COc1nc(N)c2c(n1)CCN(c1ccc(C3(C(N)=O)CCCC3)cc1)C2=O [Example 5C, 1-[4-(4-amino-2-methoxy-5-oxo-7,8-dihydropyrido[4,3-d]pyrimidin-6(5H)-yl)phenyl]cyclopentanecarboxamide]
– | 8.88 nM | 49 nM | – | COc1nc(N)c2c(n1)CCN(c1ccc(C(C)(C)C)cc1)C2=O [Example 6A, 4-amino-6-(4-tert-butylphenyl)-2-methoxy-7,8-dihydropyrido[4,3-d]pyrimidin-5(6H)-one]
– | 17.1 nM | 58.5 nM | – | COc1nc(N)c2c(n1)CCN(c1ccc(C(C)C)cc1)C2=O [Example 6E, 4-amino-6-(4-isopropylphenyl)-2-methoxy-7,8-dihydropyrido[4,3-d]pyrimidin-5(6-H)-one]
– | 32.5 nM | 133 nM | – | COc1nc(N)c2c(n1)CCN(c1ccc([C@H]3CC[C@H](CC#N)CC3)cc1)C2=O [Example 7C, {trans-4-[4-(4-amino-2-methoxy-5-oxo-7,8-dihydropyrido[4,3-d]pyrimidin-6(5H)-yl)phenyl]cyclohexyl}acetonitrile]
– | – | 124 nM | – | COc1nc(N)c2c(n1)CCN(c1ccc(I)cc1)C2=O [Example 9E, 4-amino-6-(4-iodophenyl)-2-methoxy-7,8-dihydropyrido[4,3-d]pyrimidin-5(6H)-one]
1380 nM | – | – | – | COc1nc(N)c2c(n1)CCN(c1ccc3c(c1)CC(C)(C)O3)C2=O [Example 9M, 4-amino-6-(2,2-dimethyl-2,3-dihydro-1-benzofuran-5-yl)-2-methoxy-7,8-dihydropyrido[4,3-d]pyrimidin-5(6H)-one]
– | – | 13700 nM | 5030 nM | Cc1nc(N)c2c(n1)CCN(c1ccc(I)cc1)C2=O [Example 9Q, 4-amino-6-(4-iodophenyl)-2-methyl-7,8-dihydropyrido[4,3-d]pyrimidin-5(6H)-one]
– | – | – | 1030 nM | Cc1nc(N)c2c(n1)CCN(c1ccc(C3CCC(CCO)CC3)cc1)C2=O (stereo not drawn) [Example 9R, 4-amino-6-{4-[4-(2-hydroxyethyl)cyclohexyl]phenyl}-2-methyl-7,8-dihydropyrido[4,3-d]pyrimidin-5(6H)-one]
– | – | – | 1890 nM | Cc1nc(N)c2c(n1)CCN(c1ccc(C3CCC(CC#N)CC3)cc1)C2=O (stereo not drawn) [Example 9T, {4-[4-(4-amino-2-methyl-5-oxo-7,8-dihydropyrido[4,3-d]pyrimidin-6(5H)-yl)phenyl]cyclohexyl}acetonitrile]

From patent publication US20100197591A1, “4-AMINO-7,8-DIHYDROPYRIDO[4,3-d]PYRIMIDIN-5(6H)-ONE DERIVATIVES” (pfizer Inc, priority 2009, published 2010)
